The values below come from patent US4880841A, “Process of producing phenethylamine derivatives” (Yamanouchi Pharmaceutical Co., Ltd., priority 1980, dated 1989).

Assay [1] deals with α-adrenergic. Nature of the assay: α-Adrenergic blocking action: antagonism of the hypertensive response to phenylephrine in anesthetized rats. To be noted: Rattus norvegicus, iv, read-out: α-blocking activity (rat) ED50 (mg/kg) i.v. It is filed as in vivo. The method, then: (§1) The pharmacological effects of the compounds of this invention were determined by the following experiments. The effects of the typical compounds of this invention were compared with those of 5-{1-hydroxy-2-[2-(2-methoxyphenoxy)ethylamino]ethyl}-2-methylbenzenesulfonamide (referred to as "Compound A") which is one of the typical compounds disclosed in British Pat. No. 2,006,772 and phentolamine.
A. α-Adrenergic blocking action:
The blood pressure was measured in the rats anesthetized with urethane and treated with pentolinium. The effects of the test samples (intravenous injection) to antagonize the hypertensive response to phenylephrine (10 μg/Kg i.v.) were measured and the results were shown in Table I.

Assay [2] can be described thus: Antihypertensive effects in spontaneously hypertensive rats (oral administration, tail cuff method). It is filed as in vivo. Particulars: 30 mg/kg P.O., spontaneously hypertensive rats with systolic blood pressure higher than 150 mmHg. The method, then: as §1
B. Antihypertensive effects in spontaneously hypertensive rats:
Oral administration:--The systolic blood pressure was measured indirectly by the tail cuff method using a programmed electrosphygmanometer (Nacro-Bio-Systems Inc., PE-300) on spontaneously hypertensive rats having the systolic blood pressure of higher than 150 mmHg, the results being shown in Table II.

The mark [3] stands for this setting: rats anesthetized with urethane and treated with pentolinium, i.v. test sample, phenylephrine 10 μg/Kg i.v.

Like-named read-outs stand apart in the source and are kept apart here.

For the compound `COc1ccccc1OCCNCC(O)c1ccc(C)c(S(N)(=O)=O)c1` (stereo not shown) [Compound A, 5-{1-hydroxy-2-[2-(2-methoxyphenoxy)ethylamino]ethyl}-2-methylbenzenesulfonamide, reference compound], the ED50 in assay [1] (setting [3]) is 0.032 mg/kg. Also, the “change in systolic blood pressure (mm Hg) at stated dose P.O.” value (shortened to “change … at stated dose P.O.”) in assay [2] is -30 mm Hg.
Take `CCOc1ccccc1OCCNC(C)Cc1ccc(OC)c(SC)c1.Cl` (stereo not shown) [Example 8, 4-{2-[2-(2-Ethoxyphenoxy)ethylamino]-2-methylethyl}-2-(methylthio)anisole hydrochloride]: in assay [1], the ED50 was found to be 0.0019 mg/kg. Besides, the “change … at stated dose P.O.” value in assay [2] was -48 mm Hg.
For the compound `COc1ccccc1OCCNCC(O)c1ccc(C)c([S+](C)[O-])c1.O=C(O)C(=O)O` (stereo not drawn) [Example 5, α-{[2-(2-Methoxyphenoxy)ethylamino]methyl}-4-methyl-3-methylsulfinylbenzenemethanol oxalate], in assay [1] (setting [3]), the ED50 was 0.045 mg/kg. For the same compound, in assay [2], the “change … at stated dose P.O.” value is reported as -60 mm Hg.
On the same counts, the results for `Cc1ccc(N(CC2=NCCN2)c2cccc(O)c2)cc1` [phentolamine, reference compound] are 0.061 mg/kg and -53 mm Hg.
For `CCOc1ccccc1OCCNC(C)Cc1ccc(OC)c(S(C)(=O)=O)c1.Cl` (stereo not shown) [Example 12, 4-{2-[2-(2-Ethoxyphenoxy)ethylamino]-2-methylethyl}-2-(methylsulfonyl)anisole hydrochloride], in assay [1], the ED50 was 0.00014 mg/kg. In addition, the “change … at stated dose P.O.” value in assay [2] is -58 mm Hg.
